Source: patent US10888530B2, “Implantable drug delivery compositions and methods of use thereof” (AcuityBio Corporation, priority 2015, dated 2021)

Columns and labels:
[1] = Therapeutic concentration range for paclitaxel
[2] = Paclitaxel analysis in rabbit lung implant study (blood, pleural fluid, lung tissue); format: in vivo
Procedure: An incision at the 8th intercostal space was made into the thorax of anesthetized rabbits. The Caudal lobe was partially released from the underlying ligament. Implants were affixed as a sandwich at the apical end of a resected caudal lobe. In all cases, 2 implants top & bottom were preloaded onto a 30 mm GIA stapler. Stapling and resection were performed using a 30 mm GIA stapler. Animals were sutured, air was removed from the thorax and the wound covered. […] A general schematic of the reset procedure is provided by FIG. 13A-D. For example, the stapler jaws (with the implant) are positioned to grasp the tissue (FIG. 13A). Staples are then deployed through the implant securing it to the tissue at the same time as the internal blade bisects the stapled tissue (FIG. 13B). The now bisected implant is released from the stapler. The resected tissue is removed.

IC90 [1]: ~0.05 µM
IC90 (therapeutic concentration range) [1]: about 42.5 ng/ml
concentration at 14 days ([2]; blood and tissues outside the thorax, rabbit, day 14): < 0.5 ng/mL
Paclitaxel level in pleural fluid ([2]; paclitaxel coated buttress implants): 10 to 100 nM
Paclitaxel concentration in blood (below quantifiable limits) ([2]; rabbit, 2 days, 7 days and terminally at 14 days): < 500 pg/mL
Structure (SMILES): CC(=O)O[C@H]1C(=O)[C@@]2(C)[C@H]([C@H](OC(=O)c3ccccc3)[C@]3(O)C[C@H](OC(=O)[C@H](O)[C@@H](NC(=O)c4ccccc4)c4ccccc4)C(C)=C1C3(C)C)[C@]1(OC(C)=O)CO[C@@H]1C[C@@H]2O [paclitaxel]
